We go through 13 compounds from US20130236898A1, “Anaplasma FAMILY MEMBERS CAUSE A NUMBER OF BLOOD-BORNE DISEASES” (priority 2012, published 2013).

The test system of one assay is HGA agent. Conditions: reported by Klein et al., Antimicrob. Agents and Chemother. 1997; cited from earlier work.
In assay [1] the test system is acute lymphocytic leukemia (ALL). Description: Rifampin treatment of Patient two, end stage marrow failure. It is filed as in vivo, human. Conditions: person, ALL recurrence after marrow transplant, no other treatment given. From the text: No other treatment was available or given. After 2 months of rapid improvement, during which they regained the ability to walk and was discharged from the hospital, they succumbed to an acute apparently unrecognized cytomegalovirus infection.

The test system of assay [2] is acute myelogenous leukemia (AML). Description: Rifampin treatment of Patient one. Type of assay: in vivo, human. The method, then:
This was a child with acute myelogenous leukemia (AML), who had blood counts of less than 2000 platelets and less than 300 white cells, persisting for 3 months. They were treated with Rifampin and on day 11 […] white cell count increased to 21,000, with 75% blasts.

The test system of assay [3] is intracellular organisms in the genus of Ehrlich/Anaplasma. The settings on record: cited from earlier work.

Take `O=C(N[C@H](CO)[C@H](O)c1ccc([N+](=O)[O-])cc1)C(Cl)Cl` [chloramphenicol]: in the assay on HGA agent, the “activity against the HGA agent” value is “weakly active, but not bactericidal”.
For the compound `N[C@@H]1[C@H]2CN(c3nc4c(cc3F)c(=O)c(C(=O)O)cn4-c3ccc(F)cc3F)C[C@@H]12` [trovafloxacin], the “activity against the HGA agent” value in the assay on HGA agent is “most active, and bactericidal”.
Take `CC[C@H]1OC(=O)[C@H](C)[C@@H](O[C@H]2C[C@@](C)(OC)[C@@H](O)[C@H](C)O2)[C@H](C)[C@@H](O[C@@H]2O[C@H](C)C[C@H](N(C)C)[C@H]2O)[C@](C)(O)C[C@@H](C)CN(C)[C@H](C)[C@@H](O)[C@]1(C)O` [azrithromycin]: the “activity against the HGA agent” value in the assay on HGA agent is “resistant”.
Rifampicin [Rifampin]: the clinical outcome in assay [1] is “remarkable though temporary recovery”. Also, in assay [2] (after treatment, less than 2000 platelets before), the platelets entry is “increased less rapidly”. The same compound returned a blasts in assay [2] (day 11 of treatment, share of white cell count) of 75%. For the same compound, the white cell count in assay [2] (day 11 of treatment, child, less than 300 white cells for 3 months before) is recorded as 21,000. Also, in the assay on HGA agent, the “activity against the HGA agent” value was “most active, and bactericidal”. Further, in assay [3], the “effectiveness against intracellular organisms of genus Ehrlich/Anaplasma” value is on record as “particularly effective”.
As to thrmethoprim-sulfamethoxazolem, the “activity against the HGA agent” value with HGA agent is on record as “resistant”.
For the compound Gentamicin, the “activity against the HGA agent” value in the assay on HGA agent is “weakly active, but not bactericidal”.
As to `C[C@H]1c2cccc(O)c2C(=O)C2=C(O)[C@]3(O)C(=O)C(C(N)=O)=C(O)[C@@H](N(C)C)[C@@H]3[C@@H](O)[C@@H]21` [doxycycline], in the assay with HGA agent, the “activity against the HGA agent” value was “most active, and bactericidal”.
As to `CO/N=C(\C(=O)N[C@@H]1C(=O)N2C(C(=O)O)=C(CSc3nc(=O)c(O)nn3C)CS[C@H]12)c1csc(N)n1` [cefatriaxone], the “activity against the HGA agent” value in the assay on HGA agent is recorded as “resistant”.
In the case of `CC1(C)S[C@@H]2[C@H](NC(=O)[C@H](N)c3ccccc3)C(=O)N2[C@H]1C(=O)O` [ampicillin], the “activity against the HGA agent” value in the assay on HGA agent is “resistant”.
Turning to `O=C(O)c1cn(C2CC2)c2cc(N3CCNCC3)c(F)cc2c1=O` [ciprofloxacin], the “activity against the HGA agent” value in the assay with HGA agent was “most active, and bactericidal”.
Consider imipenem-cilastatin, for which the “activity against the HGA agent” value with HGA agent was “resistant”.
Take `CO[C@H]1/C=C/O[C@@]2(C)Oc3c(C)c(O)c4c(c3C2=O)C2=NC3(CCN(CC(C)C)CC3)NC2=C(NC(=O)/C(C)=C\C=C\[C@H](C)[C@H](O)[C@@H](C)[C@@H](O)[C@@H](C)[C@H](OC(C)=O)[C@@H]1C)C4=O` [rifabutin]: in the assay on HGA agent, the “activity against the HGA agent” value is “most active, and bactericidal”.
With `CC[C@H]1OC(=O)[C@H](C)[C@@H](O[C@H]2C[C@@](C)(OC)[C@@H](O)[C@H](C)O2)[C@H](C)[C@@H](O[C@@H]2O[C@H](C)C[C@H](N(C)C)[C@H]2O)[C@](C)(O)C[C@@H](C)C(=O)[C@H](C)[C@@H](O)[C@]1(C)O` [erythromycin], in the assay with HGA agent, the “activity against the HGA agent” value was “resistant”.
